The target in data set [1] is T1, 5-lipoxygenase (5-LO) (Oryctolagus cuniculus, UniProt G1SNX0).
T1 construct: Polymorphonuclear leukocytes (PMNLs) were purified from rabbits by glycogen-intraperitoneal elicited intraperitoneal recruitment; endogenous in cells; host or cells: rabbit peritoneal polymorphonuclear leukocytes (PMNL), glycogen-elicited
T1 sequence (G1SNX0 1-674): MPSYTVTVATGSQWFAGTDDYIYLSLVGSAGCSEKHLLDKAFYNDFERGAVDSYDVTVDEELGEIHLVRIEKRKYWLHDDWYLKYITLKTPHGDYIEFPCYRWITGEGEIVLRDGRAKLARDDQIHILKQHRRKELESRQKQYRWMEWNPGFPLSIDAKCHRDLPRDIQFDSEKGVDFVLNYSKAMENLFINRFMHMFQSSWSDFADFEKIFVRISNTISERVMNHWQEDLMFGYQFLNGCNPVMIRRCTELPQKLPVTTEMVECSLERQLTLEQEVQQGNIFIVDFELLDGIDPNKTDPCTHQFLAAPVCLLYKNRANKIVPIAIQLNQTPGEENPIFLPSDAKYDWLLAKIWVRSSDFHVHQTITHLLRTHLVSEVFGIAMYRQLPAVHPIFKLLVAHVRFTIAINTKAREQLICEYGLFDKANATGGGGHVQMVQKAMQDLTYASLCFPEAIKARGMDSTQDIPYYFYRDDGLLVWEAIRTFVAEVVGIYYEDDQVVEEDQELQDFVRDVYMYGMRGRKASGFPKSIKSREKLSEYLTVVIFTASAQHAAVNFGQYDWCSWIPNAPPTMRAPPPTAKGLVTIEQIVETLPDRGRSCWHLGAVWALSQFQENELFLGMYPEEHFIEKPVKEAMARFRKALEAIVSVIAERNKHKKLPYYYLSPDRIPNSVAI
Briefly: Radioisotopic assay of 5-LO activity (LTB4 formation from 14C-arachidonic acid) in rabbit peritoneal PMNL stimulated with A-23187. In kind it is cell-based. Particulars: for inhibition at 1 µM: rabbit peritoneal neutrophils (PMNL), mean ± s.d. of three experiments in duplicate, read-out: % Inhibition (percent inhibition of LTB4 formation); for in vitro 5-LO activity in words: peritoneal PMNL. From the text:
The 5-LO enzyme, which is found primarily in cells of myeloid origin such as polymorphonuclear leukocytes (“PMNL”), eosinophils, and macrophages, catalyzes the first step of the biochemical pathway in which arachadonic acid (“AA”) is,converted into LTA4. […] To test the inhibition of the quinone derivatives on the activity of 5-LO rabbit polymorphonuclear leucocytes (PMNLs) were used.
Polymorphonuclear leukocytes (PMNLs) were purified from rabbits by glycogen-intraperitoneal elicited intraperitoneal recruitment, as descrited in T. Yatabe et al., “Studies on 5-lipoxygenase inhibitors: I. Synthesis and 5-lipoxygenase inhibitory activity of novel hydroxanic acid derivatives,” chem. Pharm. Bull., vol. 46, pp. 966-972 (1998). An intraperitoneal injection of 300 mL of 0.1% (w/v) glycogen in sterile saline was administered 6 h before the rabbits were sacrificed by an intravascular injection of Nembutal. Peritoneal exudates were collected in 5 μM EGTA, and residual red cells were removed by lysis in ammonium chloride. These cell preparations were obtained with greater than 96% purity, as assessed by Wright-Giemsa staining and greater than 95% viability as assessed by Trypan blue exclusion.
PMNL cells in suspension were pre-incubated for 20 min at room temperature with ^14C-labeled arachadonic acid (AA) and diluted to 3000 cells μL^−1. Thereafter, the calcium ionophore A-23187 (1 μg/mL) was added to stimulate LTB4 production, and the cells further incubated for 15 min under stirring at 37° C. After incubation, the aqueous samples were successively shaken with a mixture of chloroform/methanol/formic acid (12:12:1) for 30 sec and then with chloroform for 10 sec. Organic phases containing LTB4, 5-HPETE (5-hydroperoxyeicosatetraenoic acid), diHPETEs (dihydroperoxyeicosatetraenoic acids), and prostaglandins (PGs) were pooled, evaporated to dryness under nitrogen and dissolved into a small amount of chloroform-MeOH (1:1). Separation of the 5-LO metabolites was performed by thin layer chromatography (TLC) on silica gel G plates developed in diethyl ether-hexane-acetic acid (60:40:1, v/v/v).
Bands containing 5-lipoxygenase (5-LO) metabolites were scraped from the TLC plates, and ^14C levels were quantitatively measured by liquid scintillation. 5-LO activity was an obtained from the amount of ^14C-arachidonic acid converted into LTB4 after the prelabeled PMNL cells were stimulated to produce LTB4 by the calcium ionophore as described above. IC50 was calculated as the concentration of the 5-LO antagonist that produced 50% inhibition of the metabolite conversion.
[…] IC50 values, calculated as theconcentration of test compound required to cause 50% inhibition of LTB4 formation, were also determined for some representative examples. […] These compounds, in general, correspond to compounds bearing the more lipophilic quinone fragments. […] See S. Ohkawa et al., “Dual Inhibition of Thromboxane A2 Synthetase and 5-Lipoxygenase with Scavenging Activity of Active Oxygen Species. Synthesis of a Novel Series of (3-Pyridylmethyl)benzoquinone Derivatives,” J. Med. Chem., vol. 34, pp. 267-276 (1991).

Data set [2] has as its target COX-1 (Homo sapiens, UniProt P23219). Briefly: In vitro inhibition of COX-1 activity. Particulars: read-out: COX-1 percent inhibition.
Description: (§1) Percent inhibition mean values ±SD from at least three individual determinations are shown.
Data set [3] has as its target T2, COX-2 (Homo sapiens, UniProt P35354).
T2 sequence (P35354 18-604): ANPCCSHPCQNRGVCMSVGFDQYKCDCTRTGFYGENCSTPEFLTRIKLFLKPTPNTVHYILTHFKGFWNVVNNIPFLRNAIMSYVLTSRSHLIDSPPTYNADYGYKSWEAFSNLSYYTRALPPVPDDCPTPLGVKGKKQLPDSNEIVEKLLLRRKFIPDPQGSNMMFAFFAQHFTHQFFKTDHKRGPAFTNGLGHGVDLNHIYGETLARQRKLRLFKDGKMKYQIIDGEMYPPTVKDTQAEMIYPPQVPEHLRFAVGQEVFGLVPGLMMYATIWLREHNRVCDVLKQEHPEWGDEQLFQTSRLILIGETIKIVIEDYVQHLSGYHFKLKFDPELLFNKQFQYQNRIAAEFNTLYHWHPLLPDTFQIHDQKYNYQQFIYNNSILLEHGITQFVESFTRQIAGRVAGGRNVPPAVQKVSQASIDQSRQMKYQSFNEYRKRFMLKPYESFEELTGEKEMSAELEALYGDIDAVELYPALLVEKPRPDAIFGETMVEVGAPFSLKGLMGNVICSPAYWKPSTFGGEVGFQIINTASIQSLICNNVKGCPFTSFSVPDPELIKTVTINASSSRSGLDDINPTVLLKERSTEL
Briefly: In vitro inhibition of COX-2 activity. Conditions: read-out: COX-2 percent inhibition.
Description: as §1

Data set [4] deals with T3, 5-LO (Rattus norvegicus, UniProt P12527).
T3 sequence (P12527 1-673): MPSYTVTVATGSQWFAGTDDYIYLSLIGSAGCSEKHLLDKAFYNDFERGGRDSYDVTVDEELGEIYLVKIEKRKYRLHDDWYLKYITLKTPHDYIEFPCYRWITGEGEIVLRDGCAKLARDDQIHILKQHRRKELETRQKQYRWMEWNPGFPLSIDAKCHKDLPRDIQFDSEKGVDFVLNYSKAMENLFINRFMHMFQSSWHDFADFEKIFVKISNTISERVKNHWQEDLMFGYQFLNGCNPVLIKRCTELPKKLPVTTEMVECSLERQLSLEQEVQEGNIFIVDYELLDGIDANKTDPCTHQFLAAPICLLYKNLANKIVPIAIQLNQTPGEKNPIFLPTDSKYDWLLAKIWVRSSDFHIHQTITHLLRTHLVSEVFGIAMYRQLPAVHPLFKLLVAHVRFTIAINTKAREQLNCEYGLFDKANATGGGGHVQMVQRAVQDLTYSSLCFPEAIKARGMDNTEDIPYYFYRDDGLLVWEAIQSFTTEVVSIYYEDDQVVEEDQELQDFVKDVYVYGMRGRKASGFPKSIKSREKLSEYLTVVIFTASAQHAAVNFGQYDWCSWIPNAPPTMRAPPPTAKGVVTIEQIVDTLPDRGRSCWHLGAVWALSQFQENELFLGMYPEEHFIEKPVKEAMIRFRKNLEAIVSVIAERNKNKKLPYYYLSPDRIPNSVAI
Briefly: 5-LO inhibition by radioimmunoassay (RIA) in rat peritoneal PMNL. Particulars: inhibitors at 'AM final concentration' [sic], mean ± SD.
Description: as §1

For data set [5], the system named is arachidonic acid-induced ear inflammation in mice. Briefly: Arachidonic acid-induced ear inflammation in mice (AAE test). Particulars: for change in vivo at 100 µg/ear / change in vivo at 250 µg/ear / change in vivo at 50 µg/ear: Mus musculus, mice, topical, read-out: % inhibition of AA-induced ear inflammation; for change in vivo at 100 µg/ear: 100 μg/ear; for change in vivo at 250 µg/ear: 250 μg/ear; for change in vivo at 50 µg/ear: 50 μg/ear. Type of data set: in vivo.

The mark [6] stands for this setting: measured on PMNL, read-out: IC50 (concentration causing 50% inhibition of LTB4 formation), in parentheses (converted).

SMILES strings stand for the structures. Read-outs that look alike come from different tables or passages of the source.

Chain of COX-1 (P23219 24-599): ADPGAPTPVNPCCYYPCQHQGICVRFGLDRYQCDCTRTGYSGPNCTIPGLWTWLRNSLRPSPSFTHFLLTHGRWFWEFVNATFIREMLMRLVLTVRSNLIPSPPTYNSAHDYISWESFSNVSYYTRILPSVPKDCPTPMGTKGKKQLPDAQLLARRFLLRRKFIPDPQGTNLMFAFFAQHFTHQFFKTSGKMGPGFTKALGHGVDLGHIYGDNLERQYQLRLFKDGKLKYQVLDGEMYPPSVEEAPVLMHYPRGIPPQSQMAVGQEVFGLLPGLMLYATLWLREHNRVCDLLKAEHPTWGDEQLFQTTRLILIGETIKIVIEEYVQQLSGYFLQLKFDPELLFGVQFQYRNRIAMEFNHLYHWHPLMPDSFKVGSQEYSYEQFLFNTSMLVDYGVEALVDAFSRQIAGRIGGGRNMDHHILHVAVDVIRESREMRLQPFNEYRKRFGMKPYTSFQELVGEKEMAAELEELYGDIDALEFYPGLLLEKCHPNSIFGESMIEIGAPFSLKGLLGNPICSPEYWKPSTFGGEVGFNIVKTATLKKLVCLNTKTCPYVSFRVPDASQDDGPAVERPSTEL

Consider `CC1=CC(=O)C(Nc2ncccn2)=CC1=O` [Compound 4p, 2-Methyl-5-(pyrimidin-2-ylamino)-[1,4]benzoquinone], for which the melting point (commonly the temperature of the solid-liquid transition) lay in the range of 172 to 174 °C. The inhibition (usually the percentage by which the read-out fell short of the control) at 1 µM in data set [1] worked out at 62 ± 1.7%. The inhibition at 500 µM in data set [2] came to 8.4 ± 6.4%. In addition, the inhibition at 500 µM in data set [3] is 0%. The compound also came in with a 5-LO percent inhibition in data set [4] of 90.4 ± 3.3%.
`O=C1C=C(Nc2ncccn2)C(=O)c2ccccc21` [Compound 4r, 2-(Pyrimidin-2-ylamino)-[1,4]naphthoquinone] returned a melting point of 245 to 247 °C. For the same compound, in data set [1], the inhibition at 1 µM was determined as 98 ± 1.1% and the “in vitro 5-LO activity in words” value was “potent in vitro 5-LO inhibitors”. Moreover, the IC50 in data set [1] (setting [6]) was 165 nM. In data set [5], the change in vivo at 100 µg/ear was -40 ± 1.9% and the change in vivo at 250 µg/ear was -29 ± 1.8%. The inhibition at 500 µM in data set [2] was found to be 14.4 ± 1.3%. For the same compound, the inhibition at 500 µM in data set [3] turned out to be 6.6 ± 14.9%. Besides, the 5-LO percent inhibition in data set [4] stood at 96.4 ± 1.9%.
The compound `O=C1C=C(Nc2ccccn2)C(=O)c2ccccc21` [Compound 4i, 2-(Pyridin-2-ylamino)-[1,4]naphthoquinone] had a melting point of 205 to 206 °C. Besides, in data set [1], the inhibition at 1 µM was 100 ± 0.4% and the “in vitro 5-LO activity in words” value is “potent in vitro 5-LO inhibitors”. Further, the IC50 in data set [1] (setting [6]) is 45 nM. The change in vivo at 100 µg/ear in data set [5] was -20.4 ± 2.1%. Moreover, in data set [2], the inhibition at 500 µM stood at 23.1 ± 4.6%. Further, the inhibition at 500 µM in data set [3] turned out to be 16.5 ± 6.1%. The 5-LO percent inhibition in data set [4] is given as 86.2 ± 10.0%.
The compound `COC1=C(OC)C(=O)C(Nc2ccccn2)=C(C)C1=O` [Compound 4e, 2,3-Dimethoxy-5-methyl-6-(pyridin-2-ylamino)-[1,4]benzoquinone] returned a melting point of 79 to 81 °C. For the same compound, in data set [1], the inhibition at 1 µM was found to be 92 ± 4.7% and the “in vitro 5-LO activity in words” value is listed as “potent in vitro 5-LO inhibitors”. In addition, in data set [1] (setting [6]), the IC50 is 155 nM. The inhibition at 500 µM in data set [2] was determined as 11.2 ± 2.7%. For the same compound, the inhibition at 500 µM in data set [3] was 9.4 ± 0.4%. The compound also showed a 5-LO percent inhibition in data set [4] of 95.4 ± 4.0%.
As for `Cc1cc(C)nc(NC2=CC(=O)c3ccccc3C2=O)n1` [Compound 4t, 2-(4,6-Dimethylpyrimidin-2-ylamino)-[1,4]naphthoquinone], the melting point is 196 to 197 °C. Further, in data set [1], the inhibition at 1 µM came to 98 ± 1.3% and the “in vitro 5-LO activity in words” value is “potent in vitro 5-LO inhibitors”. The IC50 in data set [1] (setting [6]) was 161 nM. Besides, the change in vivo at 50 µg/ear in data set [5] is -3.3 ± 1.6%. Further, in data set [2], the inhibition at 500 µM was 8.2 ± 2.5%. The inhibition at 500 µM in data set [3] came out at 0%. In data set [4], this compound displayed a 5-LO percent inhibition of 86.3 ± 3.0%.
With `CC1=CC(=O)C(Nc2ccccn2)=CC1=O` [Compound 4c, 2-Methyl-5-(pyridin-2-ylamino)-[1,4]benzoquinone], the melting point was in the range of 137 to 139 °C. The IC50 in data set [1] (PMNL, read-out: IC50 (5-LO, LTB4 formation)) came out at 18 nM. In data set [1], the inhibition at 1 µM was 94% and the “in vitro 5-LO activity in words” value is given as “potent in vitro 5-LO inhibitors”. Besides, the “% inhibition (AAE test)” value in data set [5] (4c 100 mg (ear) as printed, alone or co-applied with Indomethacin) amounted to 66%. Also, in data set [5], the change in vivo at 50 µg/ear is -52.8 ± 6.4%, the change in vivo at 100 µg/ear was -63.7 ± 3.9% and the change in vivo at 250 µg/ear is -84.9 ± 2.4%. In data set [2], the inhibition at 500 µM is 5.2 ± 6.2%. Also, the inhibition at 500 µM in data set [3] was determined as 20.1 ± 0.7%. In addition, in data set [4], the 5-LO percent inhibition was determined as 85.8 ± 13.1%.
With `O=C1C=C(Nc2ccc(Br)cn2)C(=O)c2ccccc21` [Compound 4l, 2-(5-Bromopyndin-2-ylamino)-[1,4]naphthoquinone], the melting point was 243 to 244 °C. Besides, in data set [1], the inhibition at 1 µM came to 100 ± 0.5% and the “in vitro 5-LO activity in words” value was “potent in vitro 5-LO inhibitors”. The IC50 in data set [1] (setting [6]) was 142 nM. Moreover, in data set [5], the change in vivo at 100 µg/ear is -42.2 ± 3.1% and the change in vivo at 250 µg/ear is -30.6 ± 2.2%. Further, the inhibition at 500 µM in data set [2] stood at 16.8 ± 1.4%. For the same compound, the inhibition at 500 µM in data set [3] was found to be 8 ± 3.6%. For the same compound, the 5-LO percent inhibition in data set [4] worked out at 85.5 ± 4.5%.

For the origin of these results see US6653311B1, “5-lipoxygenase inhibitors: (2-azinylamino) quinone derivatives” (Board of Supervisors of Louisiana State University, priority 2002, dated 2003).
